Experimental data published in ChEMBL document CHEMBL5634091, “Cantharidin analogue alleviates dextran sulfate sodium-induced colitis in mice by inhibiting the activation of NF-κB signaling” (Eur J Med Chem, 2023).
Calls of active or inactive are those of the source. The calls are words filed in the database; no cut-off is given here.

Legend:
[1] = Cytotoxicity against human HCT-116 cells assessed as inhibition in cell proliferation; type: toxicity, cell-based
[2] = Toxicity in Kunming mouse assessed as increase in body weight at 1111 mg/kg, po measured for 15 days (reference value: 12.38%); type: organism-based; conditions: in vivo, 360 h, time 15 day
DLD-1 [3] = experiment: Inhibition of TNF-alpha-induced NF-kappaB nuclear translocation in human DLD-1 cells preincubated for 4 hrs followed by TNF-alpha stimulation and measured after 30 mins by immunofluorescence staining based laser scanning confocal microscopic analysis; type: cell-based; conditions: dose 25-50 µM, time 4.5 hrs
HCT-116 [4] = experiment: Effect on p38 protein expression in TNF-alpha stimulated human HCT-116 cells at 6.25 to 50 uM preincubated for 4 hrs and followed TNF-alpha stimulation and measured after 10 mins by Western blot analysis; type: functional, cell-based; conditions: dose 6.25-50 µM, time 250.0 min
HCT-116 [5] = experiment: Upregulation of ERK protein expression in TNF-alpha stimulated human HCT-116 cells at 50 uM preincubated for 4 hrs and followed TNF-alpha stimulation and measured after 10 mins by Western blot analysis; type: functional, cell-based; conditions: time 250.0 min
[6] = Toxicity in Kunming mouse assessed as increase in body weight at 667 mg/kg, po measured for 15 days (reference value: 12.38%); type: organism-based; conditions: in vivo, 360 h, time 15 day
[7] = Toxicity in Kunming mouse assessed as number of mouse survived at 1852 mg/kg, po measured for 15 days; type: organism-based; conditions: in vivo, 360 h, time 15 day
Mus musculus [8] = experiment: Anti-inflammatory activity in C57BL/6 mouse model of DSS-induced acute ulcerative colitis assessed as increase in IL-10 mRNA expression in colon at 100 to 300 mg/kg, po administered once a day for 7 days by RT-PCR analysis; type: functional, organism-based; conditions: dose 100-300 mg/kg, time 7.0 day
[9] = target: T1, NF-kappa-B inhibitor alpha (Homo sapiens) (UniProt P25963); experiment: Inhibition of proteasomal degradation of IkappaBalpha in TNF-alpha induced human HCT-116 cells assessed as increase in IkappaBalpha protein expression at 12.5 to 50 uM preincubated for 4 hrs and followed TNF-alpha stimulation and measured after 10 mins by Western blot analysis; type: cell-based; conditions: dose 12.5-50 µM, time 250.0 min
T1 sequence (whole entry): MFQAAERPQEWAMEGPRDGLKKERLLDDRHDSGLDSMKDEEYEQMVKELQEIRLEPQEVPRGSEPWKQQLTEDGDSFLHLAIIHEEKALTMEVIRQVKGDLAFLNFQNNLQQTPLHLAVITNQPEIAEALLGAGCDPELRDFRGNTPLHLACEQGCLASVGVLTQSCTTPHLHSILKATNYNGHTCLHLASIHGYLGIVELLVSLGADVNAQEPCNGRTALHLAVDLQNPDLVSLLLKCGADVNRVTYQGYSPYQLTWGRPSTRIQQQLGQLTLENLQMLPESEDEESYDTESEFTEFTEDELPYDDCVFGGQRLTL

DLD-1 [10] = experiment: Activation of MAPK signaling pathway in TNF-alpha stimulated human DLD-1 cells assessed as increase in phospho-JNK protein expression at 50 uM preincubated for 4 hrs and followed TNF-alpha stimulation and measured after 10 mins by Western blot analysis; type: cell-based; conditions: filed as activator, time 250.0 min
[11] = target: T1, NF-kappa-B inhibitor alpha (Homo sapiens); experiment: Inhibition of proteasomal degradation of IkappaBalpha in TNF-alpha induced human DLD-1 cells assessed as increase in IkappaBalpha protein expression at 12.5 to 50 uM preincubated for 4 hrs and followed TNF-alpha stimulation and measured after 10 mins by Western blot analysis; type: cell-based; conditions: dose 12.5-50 µM, time 250.0 min
DLD-1 [12] = experiment: Inhibition of TNF-alpha induced NF-kB activation in human DLD-1 cells assessed as decrease in phosphorylated IKK protein expression preincubated for 4 hrs and followed TNF-alpha stimulation and measured after 10 mins by Western blot analysis; type: cell-based; conditions: dose 12.5-50 µM, time 250.0 min
DLD-1 [13] = experiment: Effect on NF-kappaB p65 protein expression in TNF-alpha stimulated human DLD-1 cells at 12.5 to 50 uM preincubated for 4 hrs and followed TNF-alpha stimulation and measured after 10 mins by Western blot analysis; type: functional, cell-based; conditions: dose 12.5-50 µM, time 250.0 min
Mus musculus [14] = experiment: Anti-inflammatory activity in C57BL/6 mouse model of DSS-induced acute ulcerative colitis assessed as reversal of DSS-induced weight loss at 100 to 300 mg/kg, po administered once a day for 7 days; type: functional, organism-based; conditions: dose 100-300 mg/kg, time 7.0 day
Mus musculus [15] = experiment: Anti-inflammatory activity in C57BL/6 mouse model of DSS-induced acute ulcerative colitis assessed as increase in colon length at 100 to 300 mg/kg, po administered once a day for 7 days; type: functional, organism-based; conditions: dose 100-300 mg/kg, time 7.0 day
[16] = Inhibition of TNF-alpha induced NF-kappaB activation in HEK293T cells preincubated for 4 hrs and followed by TNF-alpha stimulation and measured after 4 hrs by dual-luciferase reporter assay; type: cell-based; conditions: Homo sapiens, HEK-293T
Mus musculus [17] = experiment: Anti-inflammatory activity in po dosed C57BL/6 mouse model of DSS-induced acute ulcerative colitis assessed as reduction in IL-17A mRNA expression in colon administered once a day for 7 days by RT-PCR analysis; type: functional, organism-based; conditions: dose 100-300 mg/kg, time 7.0 day
HCT-116 [18] = experiment: Effect on NF-kappaB p65 protein expression in TNF-alpha stimulated human HCT-116 cells at 12.5 to 50 uM preincubated for 4 hrs and followed TNF-alpha stimulation and measured after 10 mins by Western blot analysis; type: functional, cell-based; conditions: dose 12.5-50 µM, time 250.0 min
[19] = Toxicity in Kunming mouse assessed as increase in body weight at 1852 mg/kg, po measured for 15 days (reference value: 12.38%); type: organism-based; conditions: in vivo, 360 h, time 15 day
Mus musculus [20] = experiment: Anti-inflammatory activity in po dosed C57BL/6 mouse model of DSS-induced acute ulcerative colitis assessed as reduction in IFN-gamma mRNA expression in colon administered once a day for 7 days by RT-PCR analysis; type: functional, organism-based; conditions: dose 100-300 mg/kg, time 7.0 day
[21] = Cytotoxicity against LPS/IFNgamma induced mouse RAW264.7 cells assessed as inhibition of cell growth preincubated for 24 hrs followed by LPS/IFNgamma stimulation and measured after 24 hrs by SRB assay; type: toxicity, cell-based; conditions: RAW264.7 cells induced with LPS/IFNgamma, time 48 hrs
HCT-116 [22] = experiment: Inhibition of TNF-alpha-induced NF-kappaB nuclear translocation in human HCT-116 cells preincubated for 4 hrs followed by TNF-alpha stimulation and measured after 30 mins by immunofluorescence staining based laser scanning confocal microscopic analysis; type: cell-based; conditions: dose 25-50 µM, time 4.5 hrs
HCT-116 [23] = experiment: Inhibition of TNF-alpha induced MAPK signaling pathway activation in human HCT-116 cells assessed as decrease in phospho-JNK protein expression at 6.25 uM preincubated for 4 hrs and followed TNF-alpha stimulation and measured after 10 mins by Western blot analysis; type: cell-based; conditions: time 250.0 min
DLD-1 [24] = experiment: Upregulation of JNK protein expression in TNF-alpha stimulated human DLD-1 cells at 50 uM preincubated for 4 hrs and followed TNF-alpha stimulation and measured after 10 mins by Western blot analysis; type: functional, cell-based; conditions: time 250.0 min
DLD-1 [25] = experiment: Inhibition of TNF-alpha induced NF-kB activation in human DLD-1 cells assessed as decrease in phosphorylated p65 protein expression preincubated for 4 hrs and followed TNF-alpha stimulation and measured after 10 mins by Western blot analysis; type: cell-based; conditions: dose 12.5-50 µM, time 250.0 min
RAW264.7 = experiment: Antiinflammatory activity in mouse RAW264.7 cells assessed as inhibition in LPS/IFNgamma-induced NO production preincubated for 2 hrs followed by LPS/IFNgamma stimulation and measured after 24 hrs by Griess reagent based assay; type: functional, cell-based
DLD-1 [26] = experiment: Upregulation of ERK protein expression in TNF-alpha stimulated human DLD-1 cells at 50 uM preincubated for 4 hrs and followed TNF-alpha stimulation and measured after 10 mins by Western blot analysis; type: functional, cell-based; conditions: time 250.0 min

- inhibition [9]: Active
- inhibition [11]: Active
- IC50 [16]: 16.1 µM
- IC50 (RAW264.7): 2.66 µM
Compound: COC(=O)C1=C(C(=O)OC)C2OC1CC2C#Cc1ccc(C)cc1 (configuration not stated)
- IC50 [1]: 14.3 µM
- Activity [2]: 6.01%
- inhibition (DLD-1 [3]): Dose-Dependent Effect
- Activity (HCT-116 [4]): inactive
- Activity (HCT-116 [5]): Active
- Activity [6]: 19.18%
- Activity [7]: 0
- Activity (Mus musculus [8]): Active
- Activity (DLD-1 [10]): Active
- inhibition (DLD-1 [12]): Dose-Dependent Effect
- Activity (DLD-1 [13]): inactive
- Activity (Mus musculus [14]): Active
- Activity (Mus musculus [15]): Active
- Activity (Mus musculus [17]): Dose-Dependent Effect
- Activity (HCT-116 [18]): inactive
- Activity [19]: 15.38%
- Activity (Mus musculus [20]): Dose-Dependent Effect
- CC50 at 24 h [21]: 12.2 µM
- inhibition (HCT-116 [22]): Dose-Dependent Effect
- inhibition (HCT-116 [23]): Active
- Activity (DLD-1 [24]): Active
- inhibition (DLD-1 [25]): Dose-Dependent Effect
- Activity (DLD-1 [26]): Active
